Data taken from ChEMBL document CHEMBL5360672, “Identification of Novel Dual-Target Estrogen Receptor α Degraders with Tubulin Inhibitory Activity for the Treatment of Endocrine-Resistant Breast Cancer” (J Med Chem, 2023).
The source made the active and inactive calls. No cut-off for these calls is given here.

Assays:
[1] = molecular target: T1, Tubulin (Homo sapiens) (UniProt P68371+Q9H4B7+P0DPH7+P68366+Q13509+Q71U36+P04350+Q3ZCM7+P07437+P68363+Q9BQE3+Q6PEY2+Q13885+Q9BVA1+Q9BUF5); test: Inhibition of tubulin polymerization (unknown origin) at 30 uM incubated for 60 mins by microplate reader analysis; assay type: protein-complex assay
[2] = test system: Mus musculus; test: In vivo induction of ERalpha degradation in BALB/c nude mouse xenografted with human MCF7 cells assessed as decrease in ERalpha expression in tumor at 2 to 4 mg/kg, ip administered every other day for 20 days by Western blot analysis; assay type: functional, organism-based; conditions: dose 2-4 mg/kg, time 20.0 day
[3] = molecular target: Estrogen receptor beta (Homo sapiens) (UniProt Q92731); test: Binding affinity to human ERbeta assessed as relative binding affinity incubated under vibration for 1 min followed by 2 hrs incubation under dark condition by fluorescence polarization assay relative to estradiol; conditions: time 121.0 min
Sequence of Estrogen receptor beta (Homo sapiens) (Q92731 whole entry): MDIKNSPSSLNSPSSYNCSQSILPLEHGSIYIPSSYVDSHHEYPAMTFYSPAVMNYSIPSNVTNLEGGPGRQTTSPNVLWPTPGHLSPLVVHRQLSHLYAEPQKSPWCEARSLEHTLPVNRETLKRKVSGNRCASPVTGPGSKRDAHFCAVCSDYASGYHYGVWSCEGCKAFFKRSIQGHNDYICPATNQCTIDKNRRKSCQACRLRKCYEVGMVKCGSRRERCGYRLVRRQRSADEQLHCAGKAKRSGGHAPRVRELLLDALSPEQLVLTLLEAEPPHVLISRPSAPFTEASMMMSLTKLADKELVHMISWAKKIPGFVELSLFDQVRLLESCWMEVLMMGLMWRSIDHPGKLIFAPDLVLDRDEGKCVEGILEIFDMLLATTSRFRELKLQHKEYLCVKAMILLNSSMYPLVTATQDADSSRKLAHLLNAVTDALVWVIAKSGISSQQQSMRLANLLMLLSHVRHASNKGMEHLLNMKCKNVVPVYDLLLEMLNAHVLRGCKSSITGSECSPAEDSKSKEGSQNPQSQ

[4] = Toxicity in Balb/c nude mouse xenografted with human MCF7 cells assessed as effect on kidney morphology at 2 to 4 mg/kg, ip administered every other day for 20 days by H&E staining based analysis; assay type: organism-based; conditions: in vivo, 480 h, dose 2-4 mg/kg, time 20 day
[5] = test system: Tamoxifen-resistant LCC2 cell; test: Antitumor activity against human Tamoxifen-resistant LCC2 cells xenografted in Balb/c nude mouse assessed as reduction in Ki67 positive cells at 2 mg/kg, ip administered every other day for 20 days by immunohistochemistry analysis; assay type: functional, organism-based; conditions: time 20.0 day
[6] = test system: T47D; test: Antiproliferative activity against human T47D cells harboring ERalpha Y537S mutant assessed as inhibition of cell proliferation incubated for 72 hrs by CCK8 assay; assay type: functional, cell-based
[7] = Antitumor activity against human Tamoxifen-resistant LCC2 cells xenografted in Balb/c nude mouse assessed as tumor growth inhibition at 2 mg/kg, ip administered every other day for 20 days relative to control; assay type: functional; conditions: Tamoxifen-resistant LCC2 cell, 480 h, time 20 day, read-out: TGI
[8] = Toxicity in Balb/c nude mouse xenografted with human MCF7 cells assessed as body weight loss at 2 to 4 mg/kg, ip administered every other day for 20 days; assay type: organism-based; conditions: in vivo, 480 h, dose 2-4 mg/kg, time 20 day
[9] = molecular target: T1, Tubulin (Homo sapiens); test: Disruption of microtubule network in human MCF7 cells assessed as chaotic microtubule network at 2 uM incubated for 48 hrs by DAPI staining based confocal laser scanning microscopic analysis; assay type: cell-based
[10] = test system: Estrogen receptor (Homo sapiens), P03372 [D538G]; test: Induction of ERalpha degradation in human T47D cells harboring ERalpha D538G mutant at 0.5 to 5 uM incubated for 24 hrs by Western blot analysis; assay type: cell-based; conditions: dose 0.5-5 µM
Sequence of Estrogen receptor (Homo sapiens), P03372 [D538G] (P03372 whole entry D538G): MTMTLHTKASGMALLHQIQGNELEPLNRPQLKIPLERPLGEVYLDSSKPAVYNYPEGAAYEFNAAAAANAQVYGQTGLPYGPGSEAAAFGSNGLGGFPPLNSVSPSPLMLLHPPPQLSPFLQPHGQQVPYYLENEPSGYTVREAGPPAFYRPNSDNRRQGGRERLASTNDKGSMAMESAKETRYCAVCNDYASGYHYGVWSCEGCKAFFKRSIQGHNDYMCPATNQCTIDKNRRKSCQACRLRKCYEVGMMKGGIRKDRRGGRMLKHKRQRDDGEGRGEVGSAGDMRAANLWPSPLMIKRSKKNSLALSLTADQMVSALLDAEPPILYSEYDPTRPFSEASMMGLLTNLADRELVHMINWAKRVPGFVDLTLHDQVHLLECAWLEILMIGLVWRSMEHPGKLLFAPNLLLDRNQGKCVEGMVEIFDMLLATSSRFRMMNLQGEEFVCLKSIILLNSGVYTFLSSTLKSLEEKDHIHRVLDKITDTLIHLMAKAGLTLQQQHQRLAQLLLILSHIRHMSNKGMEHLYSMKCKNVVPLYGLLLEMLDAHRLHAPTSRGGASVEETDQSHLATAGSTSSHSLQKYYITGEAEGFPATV

[11] = test system: MCF7; test: Antitumor activity against human MCF7 cells xenografted in Balb/c nude mouse assessed as tumor growth inhibition at 2 mg/kg, ip administered every other day for 20 days relative to control; assay type: functional; conditions: MCF7, 480 h, time 20 day, read-out: TGI
[12] = molecular target: T1, Tubulin (Homo sapiens); test: Disruption of microtubule network in human LCC2 cells assessed as ruptured microtubule network at 4 uM incubated for 48 hrs by DAPI staining based confocal laser scanning microscopic analysis; assay type: cell-based
[13] = Toxicity in Balb/c nude mouse xenografted with human MCF7 cells assessed as effect on liver morphology at 2 to 4 mg/kg, ip administered every other day for 20 days by H&E staining based analysis; assay type: organism-based; conditions: in vivo, 480 h, dose 2-4 mg/kg, time 20 day
[14] = molecular target: T1, Tubulin (Homo sapiens); test: Disruption of microtubule network in human LCC2 cells assessed as chaotic microtubule network at 4 uM incubated for 48 hrs by DAPI staining based confocal laser scanning microscopic analysis; assay type: cell-based
[15] = molecular target: T2, Estrogen receptor (Homo sapiens) (UniProt P03372); test: Induction of ERalpha degradation in human MCF7 cells at 5 uM incubated for 24 hrs in the presence of MG-132 by Western blot analysis; assay type: cell-based
T2 sequence (whole entry): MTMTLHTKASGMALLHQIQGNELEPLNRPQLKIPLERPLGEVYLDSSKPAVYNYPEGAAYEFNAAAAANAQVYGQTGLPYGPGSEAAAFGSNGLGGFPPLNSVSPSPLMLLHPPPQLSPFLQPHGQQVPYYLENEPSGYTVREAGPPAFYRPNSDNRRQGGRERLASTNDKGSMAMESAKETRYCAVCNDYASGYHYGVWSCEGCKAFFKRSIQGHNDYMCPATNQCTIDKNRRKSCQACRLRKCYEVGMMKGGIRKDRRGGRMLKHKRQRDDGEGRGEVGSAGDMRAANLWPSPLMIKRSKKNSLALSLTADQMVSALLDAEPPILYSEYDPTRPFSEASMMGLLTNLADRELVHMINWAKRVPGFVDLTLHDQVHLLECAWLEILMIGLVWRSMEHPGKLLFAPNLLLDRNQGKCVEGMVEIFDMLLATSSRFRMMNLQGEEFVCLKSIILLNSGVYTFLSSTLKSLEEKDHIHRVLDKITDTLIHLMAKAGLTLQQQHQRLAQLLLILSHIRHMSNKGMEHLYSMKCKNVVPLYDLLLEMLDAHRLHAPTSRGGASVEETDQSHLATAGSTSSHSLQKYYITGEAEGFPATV

[16] = test system: MCF7; test: Antitumor activity against human MCF7 cells xenografted in Balb/c nude mouse assessed as reduction in Ki67 positive cells at 2 to 4 mg/kg, ip administered every other day for 20 days by immunohistochemistry analysis; assay type: functional, organism-based; conditions: dose 2-4 mg/kg, time 20.0 day
[17] = Toxicity in Balb/c nude mouse xenografted with human MCF7 cells assessed as effect on heart morphology at 2 to 4 mg/kg, ip administered every other day for 20 days by H&E staining based analysis; assay type: organism-based; conditions: in vivo, 480 h, dose 2-4 mg/kg, time 20 day
[18] = Antiproliferative activity against human Tamoxifen-resistant LCC2 cells assessed as inhibition of cell proliferation incubated for 72 hrs by CCK8 assay; assay type: functional, cell-based
[19] = molecular target: T2, Estrogen receptor (Homo sapiens); test: Binding affinity to human ERalpha assessed as relative binding affinity incubated under vibration for 1 min followed by 2 hrs incubation under dark condition by fluorescence polarization assay relative to estradiol; conditions: time 121.0 min
[20] = molecular target: T2, Estrogen receptor (Homo sapiens); test: Induction of ERalpha degradation in human MCF7 cells at 1 uM incubated for 6 to 24 hrs by Western blot analysis; assay type: cell-based; conditions: time 6-24 hrs
[21] = test system: MCF7; test: Induction of cell cycle arrest in human MCF7 cells assessed as increase in G2/M phase cells at 0 to 8 uM incubated for 48 hrs by flow cytometry analysis (reference value: 20.10%); assay type: functional; conditions: dose 0-8 µM
[22] = molecular target: T3, Estrogen receptor (Homo sapiens, UniProt P03372); test: Antagonist activity at ERalpha (unknown origin) expressed in HEK293T cells co-expressing ERbeta and ERE-luciferase reporter assessed as reduction in relative light unit incubated for 24 hrs by dual-luciferase reporter assay; assay type: cell-based
T3 sequence (P03372 whole entry): T2 sequence (whole entry)

[23] = test system: Estrogen receptor (Homo sapiens), P03372 [Y537S]; test: Induction of ERalpha degradation in human T47D cells harboring ERalpha Y537S mutant at 0.5 to 5 uM incubated for 24 hrs by Western blot analysis; assay type: cell-based; conditions: dose 0.5-5 µM
Sequence of Estrogen receptor (Homo sapiens), P03372 [Y537S] (P03372 whole entry Y537S): as the sequence (P03372 whole entry D538G) above, with Y537S, G538D counted along it

[24] = molecular target: T1, Tubulin (Homo sapiens); test: Disruption of microtubule network in human MCF7 cells assessed as ruptured microtubule network at 2 uM incubated for 48 hrs by DAPI staining based confocal laser scanning microscopic analysis; assay type: cell-based
[25] = test system: MCF7; test: Antiproliferative activity against ERalpha positive human MCF7 cells assessed as inhibition of cell proliferation incubated for 72 hrs by CCK8 assay; assay type: functional, cell-based; conditions: MCF7, 72 h
[26] = species on record: Homo sapiens; test: Selectivity ratio of relative binding affinity for human ERalpha to relative binding affinity to human ERbeta

tubulin polymerization inhibition (active/not active) [1]: Active | RBA [3]: 0.1% | IC50 [6]: 1370 nM | Activity [9]: Active | Activity [10]: Active | Activity [12]: Active | Activity [14]: Active | Activity [15]: inactive | RBA [19]: 8.57% | Activity [20]: Active | IC50 [22]: 56 nM | Activity [23]: Active | Activity [24]: Active | IC50 [25]: 60 nM | Selectivity ratio [26]: 85.7
SMILES: N#C[Se]CCCCCC(=O)Nc1ccc(C2=C(c3ccc(O)cc3)C3CC(S(=O)(=O)N(CC(F)(F)F)c4ccccc4F)C2O3)cc1 (stereo unspecified)
Activity [2]: Active | Activity [4]: Non-Toxic | Activity [5]: Active | inhibition in vivo at 2 mg/kg [7]: 51.4% | Activity [8]: Non-Toxic | inhibition in vivo at 2 mg/kg [11]: 74.6% | Activity [13]: Non-Toxic | Activity [16]: Active | Activity [17]: Non-Toxic | IC50 [18]: 1590 nM | Activity [21]: 40.88%
